Test results: ChEMBL document CHEMBL5131483, “Design, chemical synthesis and antiviral evaluation of 2'-deoxy-2'-fluoro-2'-C-methyl-4'-thionucleosides” (Bioorg Med Chem Lett, 2022)

System: Hepatitis C virus
Experiment: Antiviral activity against HCV by replicon assay
Format: functional, organism-based, Hepacivirus hominis
Conditions: not given
CC(C)OC(=O)[C@H](C)N[P@](=O)(OC[C@H]1O[C@@H](n2ccc(=O)[nH]c2=O)[C@](C)(F)[C@@H]1O)Oc1ccccc1 [SOFOSBUVIR] showed an EC50 of 0.03 µM.
In the case of C[C@@]1(F)[C@H](O)[C@@H](CO)S[C@@H]1n1ccc(=O)[nH]c1=O, the EC50 is reported as > 100 µM.
CC(C)OC(=O)[C@@H](C)N[P@](=O)(OC[C@H]1S[C@@H](n2ccc(=O)[nH]c2=O)[C@](C)(F)[C@@H]1O)Oc1ccccc1 showed an EC50 of 2.99 µM.
With Nc1ccn([C@@H]2[S+]([O-])[C@H](CO)[C@@H](O)C2(F)F)c(=O)n1 (mixture of isomers) the EC50 was 21.8 µM.
For C[C@@]1(F)[C@H](O)[C@@H](CO)S[C@@H]1n1ccc(N)nc1=O, the EC50 was > 100 µM.
Work on Nc1ccn([C@@H]2O[C@H](CO)[C@@H](O)[C@H]2O)c(=O)n1 [CYTIDINE] yielded an EC50 of 50 µM.
With Nc1ccn([C@H]2[C@@H](O)[C@H](O)[C@@H](CO)[S+]2[O-])c(=O)n1 (mixture of isomers) the EC50 was > 100 µM.
For Nc1ccn([C@H]2[C@H](O)[C@H](O)[C@@H](CO)[S+]2[O-])c(=O)n1 (stereo not given in full), the EC50 was > 100 µM.
Molecule O=c1ccn([C@@H]2O[C@H](CO)[C@@H](O)[C@H]2O)c(=O)[nH]1 [URIDINE] has an EC50 of 65.9 µM.
With Nc1ccn([C@@H]2O[C@H](CO)[C@@H](O)[C@@H]2O)c(=O)n1 [CYTARABINE] the EC50 was 0.16 µM.
With O=c1ccn([C@@H]2O[C@H](CO)[C@@H](O)[C@@H]2O)c(=O)[nH]1 [ARAURIDINE] the EC50 was > 100 µM.
With Nc1ccn([C@@H]2S[C@H](CO)[C@@H](O)C2(F)F)c(=O)n1 the EC50 was 22.5 µM.
In the case of C[C@@]1(F)[C@H](O)[C@@H](CO)S[C@H]1n1ccc(=O)[nH]c1=O, the EC50 is reported as > 100 µM.
In the case of C[C@@]1(F)[C@H](O)[C@@H](CO)S[C@H]1n1ccc(N)nc1=O, the EC50 is reported as > 100 µM.

System: not listed separately
Experiment: Cytotoxicity against human U-87 MG cells measured after 3 days by Celltiter-glo assay
Format: functional, U-87MG ATCC
Conditions: 72 h, time 3 day
Molecule Nc1ccn([C@@H]2O[C@H](CO)[C@@H](O)[C@@H]2O)c(=O)n1 [CYTARABINE] has a CC50 of 0.19 µM.
